Assay: xn = mol fraction of the nth substance listed

CCCCCCCCCCCCOS(=O)(=O)[O-].[Na+] + CCCCCCCCCCCCCCCC[N+](C)(C)C.[Br-] + O
298.15 K, 101 kPa, frequency 0.001 MHz
Conditions | electrical conductivity [S/m]
x1 = 3e-08, x2 = 0 | 0.000305
x1 = 1.029e-05, x2 = 0 | 0.00434
x1 = 2.57e-05, x2 = 0 | 0.0104
x1 = 3.699e-05, x2 = 0 | 0.0155
x1 = 5.034e-05, x2 = 0 | 0.0213
x1 = 6.37e-05, x2 = 0 | 0.0264
x1 = 7.295e-05, x2 = 0 | 0.0301
x1 = 8.321e-05, x2 = 0 | 0.0349
x1 = 9.348e-05, x2 = 0 | 0.0392
x1 = 0.0001038, x2 = 0 | 0.0422
x1 = 0.000113, x2 = 0 | 0.0461
x1 = 0.0001212, x2 = 0 | 0.051
x1 = 0.0001315, x2 = 0 | 0.054
x1 = 0.0001418, x2 = 0 | 0.0567
x1 = 0.00015, x2 = 0 | 0.0607
x1 = 0.0001582, x2 = 0 | 0.0631
x1 = 0.0001665, x2 = 0 | 0.0649
x1 = 0.0001737, x2 = 0 | 0.0661
x1 = 0.000183, x2 = 0 | 0.0673
x1 = 0.0001944, x2 = 0 | 0.0683
x1 = 0.0002036, x2 = 0 | 0.0701
x1 = 0.000214, x2 = 0 | 0.0713
x1 = 0.0002222, x2 = 0 | 0.0737
x1 = 0.0002315, x2 = 0 | 0.075
x1 = 0.0002408, x2 = 0 | 0.0771
x1 = 0.0002521, x2 = 0 | 0.0792
x1 = 0.0002625, x2 = 0 | 0.0801
x1 = 0.0002738, x2 = 0 | 0.0823
x1 = 0.0002862, x2 = 0 | 0.0841

C[N+](C)(C)CCO.O=C([O-])CO + O
Conditions | viscosity [mPa·s]
293.15 K, 101 kPa, x2 = 0.366 | 660

CCCC[N+]1(C)CCCC1.N#C[C-](C#N)C#N + c1ccc2sccc2c1
101 kPa
Conditions | viscosity [mPa·s]
308.15 K, x2 = 0 | 20.6
308.15 K, x2 = 0.5267 | 11.92
328.15 K, x2 = 0.5267 | 7.1
338.15 K, x2 = 0.3565 | 6.96

CCCCCCCC[n+]1ccccc1.[Br-] + C[C@H](N)C(=O)O + O
100 kPa
Conditions | electrical conductivity [S/m]
288.15 K, x2 = 0.0008949, x1 = 0.005855 | 1.24
288.15 K, x2 = 0.000895, x1 = 0.005791 | 1.23
288.15 K, x2 = 0.0008952, x1 = 0.005507 | 1.2
288.15 K, x2 = 0.0008955, x1 = 0.005201 | 1.17
288.15 K, x2 = 0.0008958, x1 = 0.004877 | 1.14
288.15 K, x2 = 0.0008961, x1 = 0.004522 | 1.1
288.15 K, x2 = 0.0008965, x1 = 0.004131 | 1.04
288.15 K, x2 = 0.0008969, x1 = 0.003704 | 0.975
288.15 K, x2 = 0.0008973, x1 = 0.003232 | 0.884
288.15 K, x2 = 0.0008977, x1 = 0.002757 | 0.789
288.15 K, x2 = 0.0008982, x1 = 0.002255 | 0.678
288.15 K, x2 = 0.0008984, x1 = 0.001938 | 0.603
288.15 K, x2 = 0.0008988, x1 = 0.001556 | 0.507
288.15 K, x2 = 0.0008991, x1 = 0.001181 | 0.405
288.15 K, x2 = 0.0008995, x1 = 0.0007571 | 0.288
288.15 K, x2 = 0.001794, x1 = 0.002782 | 0.753
288.15 K, x2 = 0.001795, x1 = 0.002177 | 0.623
288.15 K, x2 = 0.001796, x1 = 0.001292 | 0.412
288.15 K, x2 = 0.001796, x1 = 0.001777 | 0.532
288.15 K, x2 = 0.001797, x1 = 0.0008214 | 0.291
293.15 K, x2 = 0.0008949, x1 = 0.005848 | 1.41
293.15 K, x2 = 0.000895, x1 = 0.005786 | 1.4
293.15 K, x2 = 0.0008952, x1 = 0.005501 | 1.37
293.15 K, x2 = 0.0008955, x1 = 0.005196 | 1.33
293.15 K, x2 = 0.0008958, x1 = 0.004871 | 1.29
293.15 K, x2 = 0.0008961, x1 = 0.004517 | 1.25
293.15 K, x2 = 0.0008965, x1 = 0.004128 | 1.18
293.15 K, x2 = 0.0008969, x1 = 0.003703 | 1.1
293.15 K, x2 = 0.0008973, x1 = 0.003228 | 1
293.15 K, x2 = 0.0008977, x1 = 0.002756 | 0.894
293.15 K, x2 = 0.0008982, x1 = 0.002254 | 0.766
293.15 K, x2 = 0.0008984, x1 = 0.001937 | 0.68
293.15 K, x2 = 0.0008988, x1 = 0.001555 | 0.568
293.15 K, x2 = 0.0008991, x1 = 0.001179 | 0.455
293.15 K, x2 = 0.0008995, x1 = 0.0007571 | 0.334
293.15 K, x2 = 0.001794, x1 = 0.00278 | 0.851
293.15 K, x2 = 0.001795, x1 = 0.002175 | 0.705
293.15 K, x2 = 0.001796, x1 = 0.001292 | 0.464
293.15 K, x2 = 0.001796, x1 = 0.001777 | 0.602
293.15 K, x2 = 0.001797, x1 = 0.0008196 | 0.325
298.15 K, x2 = 0.0008949, x1 = 0.005843 | 1.59
298.15 K, x2 = 0.000895, x1 = 0.005779 | 1.58
298.15 K, x2 = 0.0008952, x1 = 0.005494 | 1.54
298.15 K, x2 = 0.0008955, x1 = 0.005188 | 1.5
298.15 K, x2 = 0.0008958, x1 = 0.004866 | 1.45
298.15 K, x2 = 0.0008961, x1 = 0.004511 | 1.4
298.15 K, x2 = 0.0008965, x1 = 0.004122 | 1.32
298.15 K, x2 = 0.0008969, x1 = 0.003697 | 1.24
298.15 K, x2 = 0.0008973, x1 = 0.003225 | 1.12
298.15 K, x2 = 0.0008977, x1 = 0.002752 | 1
298.15 K, x2 = 0.0008982, x1 = 0.002252 | 0.857
298.15 K, x2 = 0.0008984, x1 = 0.001935 | 0.762
298.15 K, x2 = 0.0008988, x1 = 0.001553 | 0.633
298.15 K, x2 = 0.0008991, x1 = 0.001178 | 0.509
298.15 K, x2 = 0.0008995, x1 = 0.0007571 | 0.36
298.15 K, x2 = 0.001794, x1 = 0.002776 | 0.953
298.15 K, x2 = 0.001795, x1 = 0.002171 | 0.788
298.15 K, x2 = 0.001796, x1 = 0.00129 | 0.518
298.15 K, x2 = 0.001796, x1 = 0.001774 | 0.671
298.15 K, x2 = 0.001797, x1 = 0.0008196 | 0.36
303.15 K, x2 = 0.0008949, x1 = 0.005838 | 1.78
303.15 K, x2 = 0.000895, x1 = 0.005773 | 1.77
303.15 K, x2 = 0.0008952, x1 = 0.005489 | 1.73
303.15 K, x2 = 0.0008955, x1 = 0.005185 | 1.68
303.15 K, x2 = 0.0008958, x1 = 0.004861 | 1.62
303.15 K, x2 = 0.0008961, x1 = 0.004508 | 1.56
303.15 K, x2 = 0.0008965, x1 = 0.004119 | 1.48
303.15 K, x2 = 0.0008969, x1 = 0.003694 | 1.38
303.15 K, x2 = 0.0008973, x1 = 0.003221 | 1.25
303.15 K, x2 = 0.0008977, x1 = 0.002748 | 1.11
303.15 K, x2 = 0.0008982, x1 = 0.002248 | 0.952
303.15 K, x2 = 0.0008984, x1 = 0.001933 | 0.834
303.15 K, x2 = 0.0008988, x1 = 0.001553 | 0.687
303.15 K, x2 = 0.0008991, x1 = 0.001178 | 0.563
303.15 K, x2 = 0.0008995, x1 = 0.0007553 | 0.418
303.15 K, x2 = 0.001794, x1 = 0.002774 | 1.06
303.15 K, x2 = 0.001795, x1 = 0.002169 | 0.875
303.15 K, x2 = 0.001796, x1 = 0.001289 | 0.574
303.15 K, x2 = 0.001796, x1 = 0.001774 | 0.741
303.15 K, x2 = 0.001797, x1 = 0.0008196 | 0.4
308.15 K, x2 = 0.000895, x1 = 0.005759 | 2.02
308.15 K, x2 = 0.000895, x1 = 0.005823 | 2.04
308.15 K, x2 = 0.0008953, x1 = 0.005478 | 1.95
308.15 K, x2 = 0.0008955, x1 = 0.005172 | 1.88
308.15 K, x2 = 0.0008958, x1 = 0.00485 | 1.8
308.15 K, x2 = 0.0008961, x1 = 0.004497 | 1.72
308.15 K, x2 = 0.0008965, x1 = 0.00411 | 1.63
308.15 K, x2 = 0.0008969, x1 = 0.003686 | 1.51
308.15 K, x2 = 0.0008973, x1 = 0.003214 | 1.36
308.15 K, x2 = 0.0008977, x1 = 0.002743 | 1.2
308.15 K, x2 = 0.0008982, x1 = 0.002245 | 1.02
308.15 K, x2 = 0.0008984, x1 = 0.001928 | 0.908
308.15 K, x2 = 0.0008988, x1 = 0.001549 | 0.78
308.15 K, x2 = 0.0008991, x1 = 0.001174 | 0.643
308.15 K, x2 = 0.0008995, x1 = 0.0007535 | 0.488
308.15 K, x2 = 0.001794, x1 = 0.002767 | 1.15
308.15 K, x2 = 0.001795, x1 = 0.002166 | 0.937
308.15 K, x2 = 0.001796, x1 = 0.001287 | 0.631
308.15 K, x2 = 0.001796, x1 = 0.001768 | 0.805
308.15 K, x2 = 0.001797, x1 = 0.0008178 | 0.46
